Here are results for nine molecules from patent publication US20100179093A1, “Neoropeptide-2-Receptor (Y-2R) Agonists” (priority 2008, published 2010).

Common to all, as to assay type: cell-based
In test [1] the target is T1, Y1R (Homo sapiens, UniProt P25929).
T1 sequence (P25929 1-384): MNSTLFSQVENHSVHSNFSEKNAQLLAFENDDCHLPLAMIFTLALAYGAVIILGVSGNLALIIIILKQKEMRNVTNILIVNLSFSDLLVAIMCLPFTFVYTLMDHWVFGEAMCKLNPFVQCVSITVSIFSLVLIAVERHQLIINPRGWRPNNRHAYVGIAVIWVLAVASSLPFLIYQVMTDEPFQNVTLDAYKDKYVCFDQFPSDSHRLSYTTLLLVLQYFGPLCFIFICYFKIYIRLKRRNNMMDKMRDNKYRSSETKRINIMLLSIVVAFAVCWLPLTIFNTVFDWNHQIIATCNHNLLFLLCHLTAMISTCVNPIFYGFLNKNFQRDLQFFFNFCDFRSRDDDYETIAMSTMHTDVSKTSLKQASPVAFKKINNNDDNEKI
The test is described as follows: CaFlux Assay (FLIPR), Y1R.

For test [2], the target named is Y4R (Homo sapiens, UniProt P50391). In words: CaFlux Assay (FLIPR), Y4R.
Test [3] addresses T2, Y5R (Homo sapiens, UniProt Q15761).
T2 sequence (Q15761 1-445): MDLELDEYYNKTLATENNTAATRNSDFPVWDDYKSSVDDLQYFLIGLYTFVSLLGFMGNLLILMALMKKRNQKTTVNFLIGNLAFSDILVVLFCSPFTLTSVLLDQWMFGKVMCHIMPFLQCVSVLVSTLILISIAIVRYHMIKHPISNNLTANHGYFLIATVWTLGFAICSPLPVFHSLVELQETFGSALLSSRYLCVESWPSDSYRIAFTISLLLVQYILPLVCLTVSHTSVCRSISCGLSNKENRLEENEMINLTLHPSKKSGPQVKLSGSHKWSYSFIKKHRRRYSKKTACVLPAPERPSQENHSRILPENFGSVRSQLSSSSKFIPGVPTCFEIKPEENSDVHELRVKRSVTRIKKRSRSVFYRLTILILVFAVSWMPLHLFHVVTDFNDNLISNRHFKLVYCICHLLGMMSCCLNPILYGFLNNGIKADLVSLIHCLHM
In words: CaFlux Assay (FLIPR), Y5R.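 For Emax: percent of the maximal response of the positive control agonist.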 The settings on record: for Emax: read-out: Y5R FLIPR, percentage in parentheses under the EC50.

In test [4] the target is T3, hNPY2R (Homo sapiens, UniProt P49146).
T3 sequence (P49146 1-381): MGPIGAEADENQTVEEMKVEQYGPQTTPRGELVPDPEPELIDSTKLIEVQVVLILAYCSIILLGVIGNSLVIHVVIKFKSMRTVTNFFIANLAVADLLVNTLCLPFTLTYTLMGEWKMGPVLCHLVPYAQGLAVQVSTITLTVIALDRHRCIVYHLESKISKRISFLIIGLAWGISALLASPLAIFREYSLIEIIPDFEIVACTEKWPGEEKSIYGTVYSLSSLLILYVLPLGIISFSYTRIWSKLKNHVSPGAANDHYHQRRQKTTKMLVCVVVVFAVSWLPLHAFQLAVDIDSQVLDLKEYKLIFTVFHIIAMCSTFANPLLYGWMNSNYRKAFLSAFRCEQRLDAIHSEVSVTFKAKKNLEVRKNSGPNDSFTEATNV
In words: cAMP Agonist Assay, HEK293/hNPY2R cells. Set-up: expressed in transfected cells; host or cells: HEK293/hNPY2R (G418 selection).

Test [5] addresses T3, hNPY2R. The test is described as follows: CaFlux Assay (FLIPR), Y2R. Details: expressed in transfected cells; host or cells: HEK-293 stably expressing G protein chimera Gaqi9.

A value given as a limit tells only on which side of the number the result lay.

Y4R, sequence (P50391 whole entry): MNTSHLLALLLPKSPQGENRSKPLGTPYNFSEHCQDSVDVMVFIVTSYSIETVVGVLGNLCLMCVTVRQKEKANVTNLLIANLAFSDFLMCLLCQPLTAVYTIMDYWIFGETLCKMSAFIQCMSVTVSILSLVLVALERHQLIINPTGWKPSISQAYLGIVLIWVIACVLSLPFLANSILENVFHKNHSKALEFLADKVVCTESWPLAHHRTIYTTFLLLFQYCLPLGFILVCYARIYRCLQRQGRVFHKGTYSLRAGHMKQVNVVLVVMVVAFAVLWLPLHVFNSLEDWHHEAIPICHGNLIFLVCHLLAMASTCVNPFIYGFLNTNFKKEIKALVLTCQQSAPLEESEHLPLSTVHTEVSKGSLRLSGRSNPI

With `CCCCCCCCCCCCCCCC(=O)N[C@@H](CCC(=O)N[C@@H](CCC(=O)NCCCC[C@H](NC(=O)[C@@H](NC(=O)[C@@H]1CCC(=O)N1)[C@@H](C)CC)C(=O)N1CCN(c2ccc3ncn(CC(=O)N[C@@H](CCCNC(=N)N)C(=O)N[C@@H](Cc4c[nH]cn4)C(=O)N[C@@H](Cc4ccc(O)cc4)C(=O)N[C@@H](CC(C)C)C(=O)N[C@@H](CC(N)=O)C(=O)N[C@@H](Cc4c[nH]c5ccccc45)C(=O)N[C@H](C(=O)N[C@H](C(=O)N[C@@H](CCCNC(=N)N)C(=O)N[C@@H](CCC(N)=O)C(=O)N(C)[C@@H](CCCNC(=N)N)C(=O)N[C@@H](Cc4ccc(O)cc4)C(N)=O)[C@@H](C)O)C(C)C)c(=O)c3c2)CC1)C(=O)O)C(=O)O` [Example 28], the EC50 in test [1] is over 5000 nM; in test [2] it was over 5000 nM; in test [3], 2060 nM; in test [4], 0.21 nM; in test [5], 0.176 nM.

With `CCCCCCCCCCCCCCCCCCCC(=O)NCCCCCC(=O)NCCCC[C@H](NC(=O)[C@@H](N)[C@@H](C)CC)C(=O)N1CCN(c2ccc3ncn(CC(=O)N[C@@H](CCCNC(=N)N)C(=O)N[C@@H](Cc4c[nH]cn4)C(=O)N[C@@H](Cc4ccc(O)cc4)C(=O)N[C@@H](CC(C)C)C(=O)N[C@@H](CC(N)=O)C(=O)N[C@@H](Cc4c[nH]c5ccccc45)C(=O)N[C@H](C(=O)N[C@H](C(=O)N[C@@H](CCCNC(=N)N)C(=O)N[C@@H](CCC(N)=O)C(=O)N(C)[C@@H](CCCNC(=N)N)C(=O)N[C@@H](Cc4ccc(O)cc4)C(N)=O)[C@@H](C)O)C(C)C)c(=O)c3c2)CC1` [Example 30], the EC50 in test [1] is over 5000 nM; in test [2], over 5000 nM; in test [3], 306 nM; in test [4] it was 0.14 nM; in test [5], 0.96 nM. In addition, in test [3], the Emax worked out at 28%.

For the molecule `CCCCCCCCCCCCCCCC(=O)NCCCC[C@H](NC(=O)[C@@H](NC(C)=O)[C@@H](C)CC)C(=O)N1CCN(c2ccc3ncn(CC(=O)N[C@@H](CCCNC(=N)N)C(=O)N[C@@H](Cc4c[nH]cn4)C(=O)N[C@@H](Cc4ccc(O)cc4)C(=O)N[C@@H](CC(C)C)C(=O)N[C@@H](CC(N)=O)C(=O)N[C@@H](Cc4c[nH]c5ccccc45)C(=O)N[C@H](C(=O)N[C@H](C(=O)N[C@@H](CCCNC(=N)N)C(=O)N[C@@H](CCC(N)=O)C(=O)N(C)[C@@H](CCCNC(=N)N)C(=O)N[C@@H](Cc4ccc(O)cc4)C(N)=O)[C@@H](C)O)C(C)C)c(=O)c3c2)CC1` [Example 13], the EC50 in test [1] came out at 29200 nM; in test [2] it was 32200 nM; in test [3] it was 9380 nM; in test [4], 1.2 nM; in test [5], 1.31 nM.

On to `CCCCCCCCCCCCCCCC(=O)NCCOCCOCCOCCC(=O)NCCCC[C@H](NC(=O)[C@@H](N)[C@@H](C)CC)C(=O)N1CCN(c2ccc3ncn(CC(=O)N[C@@H](CCCNC(=N)N)C(=O)N[C@@H](Cc4c[nH]cn4)C(=O)N[C@@H](Cc4ccc(O)cc4)C(=O)N[C@@H](CC(C)C)C(=O)N[C@@H](CC(N)=O)C(=O)N[C@@H](Cc4c[nH]c5ccccc45)C(=O)N[C@H](C(=O)N[C@H](C(=O)N[C@@H](CCCNC(=N)N)C(=O)N[C@@H](CCC(N)=O)C(=O)N(C)[C@@H](CCCNC(=N)N)C(=O)N[C@@H](Cc4ccc(O)cc4)C(N)=O)[C@@H](C)O)C(C)C)c(=O)c3c2)CC1` [Example 34], for which the EC50 in test [1] is over 5000 nM; in test [2], over 5000 nM; in test [3] it was 2340 nM; in test [4], 0.1 nM; in test [5], 0.003 nM. The Emax in test [3] was determined as 80%.

In the case of `CCCCCCCCCCCCCCCCCCCC(=O)NCCOCCOCCOCCOCCC(=O)NCCCC[C@H](NC(=O)[C@@H](N)[C@@H](C)CC)C(=O)N1CCN(c2ccc3ncn(CC(=O)N[C@@H](CCCNC(=N)N)C(=O)N[C@@H](Cc4c[nH]cn4)C(=O)N[C@@H](Cc4ccc(O)cc4)C(=O)N[C@@H](CC(C)C)C(=O)N[C@@H](CC(N)=O)C(=O)N[C@@H](Cc4c[nH]c5ccccc45)C(=O)N[C@H](C(=O)N[C@H](C(=O)N[C@@H](CCCNC(=N)N)C(=O)N[C@@H](CCC(N)=O)C(=O)N(C)[C@@H](CCCNC(=N)N)C(=O)N[C@@H](Cc4ccc(O)cc4)C(N)=O)[C@@H](C)O)C(C)C)c(=O)c3c2)CC1` [Example 33], the EC50 in test [1] is over 5000 nM; in test [2], over 5000 nM; in test [3] it was 241 nM; in test [4] it was 0.13 nM; in test [5] it was 1.08 nM. Further, the Emax in test [3] came out at 53%.

As to `CCCCCCCCCCCCCCCCCCCC(=O)N[C@@H](CCC(=O)N[C@@H](CCC(=O)NCCCC[C@H](NC(=O)[C@@H](N)[C@@H](C)CC)C(=O)N1CCN(c2ccc3ncn(CC(=O)N[C@@H](CCCNC(=N)N)C(=O)N[C@@H](Cc4c[nH]cn4)C(=O)N[C@@H](Cc4ccc(O)cc4)C(=O)N[C@@H](CC(C)C)C(=O)N[C@@H](CC(N)=O)C(=O)N[C@@H](Cc4c[nH]c5ccccc45)C(=O)N[C@H](C(=O)N[C@H](C(=O)N[C@@H](CCCNC(=N)N)C(=O)N[C@@H](CCC(N)=O)C(=O)N(C)[C@@H](CCCNC(=N)N)C(=O)N[C@@H](Cc4ccc(O)cc4)C(N)=O)[C@@H](C)O)C(C)C)c(=O)c3c2)CC1)C(=O)O)C(=O)O` [Example 31], the EC50 in test [1] was over 5000 nM; in test [2], over 5000 nM; in test [3] it was 634 nM; in test [4], 0.07 nM; in test [5], 0.091 nM. In addition, the Emax in test [3] was determined as 60%.

For the molecule `CCCCCCCCCCCCCCCC(=O)N[C@@H](CCC(=O)NCCCC[C@H](NC(=O)[C@@H](N)[C@@H](C)CC)C(=O)N1CCN(c2ccc3ncn(CC(=O)N[C@@H](CCCNC(=N)N)C(=O)N[C@@H](Cc4c[nH]cn4)C(=O)N[C@@H](Cc4ccc(O)cc4)C(=O)N[C@@H](CC(C)C)C(=O)N[C@@H](CC(N)=O)C(=O)N[C@@H](Cc4c[nH]c5ccccc45)C(=O)N[C@H](C(=O)N[C@H](C(=O)N[C@@H](CCCNC(=N)N)C(=O)N[C@@H](CCC(N)=O)C(=O)N(C)[C@@H](CCCNC(=N)N)C(=O)N[C@@H](Cc4ccc(O)cc4)C(N)=O)[C@@H](C)O)C(C)C)c(=O)c3c2)CC1)C(=O)O` [Example 24], the EC50 in test [1] is over 5000 nM; in test [2], over 5000 nM; in test [3], 168 nM; in test [4] it was 0.21 nM; in test [5], 0.039 nM. Also, in test [3], the Emax was 70%.

With `CCCCCCCCCCCC(=O)NCCCC[C@H](NC(=O)[C@@H](NC(C)=O)[C@@H](C)CC)C(=O)N1CCN(c2ccc3ncn(CC(=O)N[C@@H](CCCNC(=N)N)C(=O)N[C@@H](Cc4c[nH]cn4)C(=O)N[C@@H](Cc4ccc(O)cc4)C(=O)N[C@@H](CC(C)C)C(=O)N[C@@H](CC(N)=O)C(=O)N[C@@H](Cc4c[nH]c5ccccc45)C(=O)N[C@H](C(=O)N[C@H](C(=O)N[C@@H](CCCNC(=N)N)C(=O)N[C@@H](CCC(N)=O)C(=O)N(C)[C@@H](CCCNC(=N)N)C(=O)N[C@@H](Cc4ccc(O)cc4)C(N)=O)[C@@H](C)O)C(C)C)c(=O)c3c2)CC1` [Example 7], the EC50 in test [1] was found to be 6430 nM; in test [2], 14500 nM; in test [3] it was 12800 nM; in test [4], 5.4 nM; in test [5] it was 4.7 nM.

With `CCCCCCCCCCCCCCCC(=O)NCCOCCOCCNC(=O)CCC(=O)NCCCC[C@H](NC(=O)[C@@H](N)[C@@H](C)CC)C(=O)N1CCN(c2ccc3ncn(CC(=O)N[C@@H](CCCNC(=N)N)C(=O)N[C@@H](Cc4c[nH]cn4)C(=O)N[C@@H](Cc4ccc(O)cc4)C(=O)N[C@@H](CC(C)C)C(=O)N[C@@H](CC(N)=O)C(=O)N[C@@H](Cc4c[nH]c5ccccc45)C(=O)N[C@H](C(=O)N[C@H](C(=O)N[C@@H](CCCNC(=N)N)C(=O)N[C@@H](CCC(N)=O)C(=O)N(C)[C@@H](CCCNC(=N)N)C(=O)N[C@@H](Cc4ccc(O)cc4)C(N)=O)[C@@H](C)O)C(C)C)c(=O)c3c2)CC1` [Example 36], the EC50 in test [1] is over 5000 nM; in test [2], over 5000 nM; in test [3], 481 nM; in test [4], 0.15 nM; in test [5], 0.138 nM. Besides, the Emax in test [3] was determined as 73%.

By EC50 is commonly meant the concentration at which the effect is half-maximal. High values mean weaker potency, low ones greater potency.
